Type in all cases: cell-based
Experiment [1] concerns the target T1, AR protein (Homo sapiens, UniProt P10275, T878A).
T1 construct: degradation activity of the compounds disclosed in the present disclosure on AR protein in LNCaP cells; host or cells: LNCaP FGC
T1 sequence (P10275 1-920 T878A): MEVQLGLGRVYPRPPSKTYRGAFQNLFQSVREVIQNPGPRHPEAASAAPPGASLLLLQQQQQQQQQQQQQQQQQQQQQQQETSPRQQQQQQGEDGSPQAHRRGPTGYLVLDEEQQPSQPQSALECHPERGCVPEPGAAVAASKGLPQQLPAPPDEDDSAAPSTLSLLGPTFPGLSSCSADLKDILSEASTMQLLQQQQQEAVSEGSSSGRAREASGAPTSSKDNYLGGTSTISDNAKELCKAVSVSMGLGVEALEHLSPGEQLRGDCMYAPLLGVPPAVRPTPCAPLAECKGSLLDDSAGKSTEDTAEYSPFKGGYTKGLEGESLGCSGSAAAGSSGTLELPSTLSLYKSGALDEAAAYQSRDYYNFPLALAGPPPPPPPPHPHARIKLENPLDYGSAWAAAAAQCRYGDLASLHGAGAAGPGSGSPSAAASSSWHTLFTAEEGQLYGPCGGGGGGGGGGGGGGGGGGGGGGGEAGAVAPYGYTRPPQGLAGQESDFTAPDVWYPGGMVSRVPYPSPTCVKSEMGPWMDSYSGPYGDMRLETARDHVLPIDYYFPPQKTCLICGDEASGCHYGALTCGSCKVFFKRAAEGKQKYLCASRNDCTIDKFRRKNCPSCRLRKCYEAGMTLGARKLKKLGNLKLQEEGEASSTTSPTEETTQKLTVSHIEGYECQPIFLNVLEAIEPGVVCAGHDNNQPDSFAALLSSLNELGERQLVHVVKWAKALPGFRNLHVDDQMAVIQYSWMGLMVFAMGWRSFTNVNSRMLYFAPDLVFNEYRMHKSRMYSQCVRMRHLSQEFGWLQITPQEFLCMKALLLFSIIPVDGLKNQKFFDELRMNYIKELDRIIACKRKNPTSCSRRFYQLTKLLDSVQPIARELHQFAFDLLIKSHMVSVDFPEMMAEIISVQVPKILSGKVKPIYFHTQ
Briefly: Degradation of AR protein in LNCaP cells (Western blot). The following applies: for inhibition at 0.01 µM: read-out: Degradation rates of the AR protein in LNCaP cells, 10 nM (%); for inhibition at 0.1 µM: read-out: Degradation rates of the AR protein in LNCaP cells, 100 nM (%). The method, boiled down:
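AR assessed by SDS-PAGE/Western blot with infrared imaging; band greyscale normalised to GAPDH gave percent degradation.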

Experiment [2] addresses T2, AR protein (Homo sapiens, UniProt P10275).
T2 construct: degradation activity of the compounds disclosed in the present disclosure on AR protein in VCaP cells; host or cells: VCaP
T2 sequence (P10275 1-920): T1 sequence (P10275 1-920 T878A) with A878T
Briefly: Degradation of AR protein in VCaP cells (Western blot). To be noted: 8 hours; for inhibition at 0.01 µM: compound at 10 nM, read-out: Degradation rate of the AR protein in VCaP cells, 10 nM (%); for inhibition at 0.1 µM: compound at 100 nM, read-out: Degradation rate of the AR protein in VCaP cells, 100 nM (%). Put shortly:
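VCaP cells treated with compound alongside solvent controls for 8 h, then lysed in RIPA and protein quantified by BCA. AR detected by SDS-PAGE/Western blot with infrared imaging. Degradation rate calculated from band grayscale, with GAPDH as internal reference.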

The next experiment relates to LNCaP FGC cells. Briefly: Inhibition of proliferation of LNCaP cells (WST-8). The following applies: Homo sapiens, LNCaP, 96 h. How it is done: The cells were cultured in a cell culture incubator with 5% CO2 at 37° C. overnight. […] On the sixth day, 96 well plates were taken out, and 20 μL of WST-8 (Beytime, C0040) reagent was added to each well.
A further experiment concerns VCaP cells. The experiment is described as follows: Inhibition of proliferation of VCaP cells (WST-8). The following applies: Homo sapiens, read-out: IC50 for inhibiting the proliferation of VCaP cells. The method, boiled down:
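VCaP FGC cells, 15000 per well in DMEM with 10% FBS, were cultured at 37° C, 5% CO2. On day nine, WST-8 reagent was added to read proliferation.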

[3] abbreviates: LNCaP cells, compound 10 nM, 8 hours, Western blot grayscale, GAPDH internal reference.
The mark [4] stands for this setting: LNCaP cells, compound 100 nM, 8 hours, Western blot grayscale, GAPDH internal reference.
Setting [5] is: LNCaP FGC cells, 96 hours, WST-8 absorbance at 450 nm, read-out: IC50 for inhibiting the proliferation of LNCaP cells.
[6] abbreviates: VCaP cells, 168 hours, WST-8 absorbance at 450 nm.

Substitutions are numbered along the chain they refer to. pIC50: −log10 of the molar value. Read-outs that look alike come from different tables or passages of the source.

`N#Cc1ccc(O[C@H]2CC[C@H](NC(=O)c3ccc(N4CCC5(CC4)CC(N4CCC6(CCc7ccc8c(c7O6)CN(C6CCC(=O)NC6=O)C8=O)CC4)C5)nn3)CC2)cc1Cl` (stereo partly drawn) [Compound 154]: the inhibition at 0.01 µM at AR protein [1] (setting [3]) amounted to 46%; at AR protein [2], 75%. Also, the inhibition at 0.1 µM on AR protein [1] (setting [4]) is 48%; on AR protein [2], 86%. The pIC50 in the experiment with LNCaP FGC cells (setting [5]) is 4.40; with VCaP cells (setting [6]), 8.00.

In the case of `COc1cc(O[C@H]2C(C)(C)[C@H](NC(=O)c3ccc(N4CCC(C#N)(CN5CCC6(CC5)COc5c6ccc6c5CN(C5CCC(=O)NC5=O)C6=O)CC4)cc3)C2(C)C)ccc1C#N` (stereo partly drawn) [Compound 208], the inhibition at 0.01 µM at AR protein [1] (setting [3]) was 34%; at AR protein [2], 17%. The inhibition at 0.1 µM on AR protein [1] (setting [4]) was found to be 38%; on AR protein [2], 67%. Further, the pIC50 in the experiment on LNCaP FGC cells (setting [5]) was 8.00; in the experiment with VCaP cells (setting [6]), 8.46.

For the molecule `COc1cc(O[C@H]2C(C)(C)[C@H](NC(=O)c3ccc(N4CCC(C)(CN5CCC6(CC5)COc5cc7c(cc56)C(=O)N(C5CCC(=O)NC5=O)C7=O)CC4)cc3)C2(C)C)ccc1C#N` (stereo partly drawn) [Compound 288], the inhibition at 0.01 µM is -18% at AR protein [1] (setting [3]) and 7% on AR protein [2]. Besides, the inhibition at 0.1 µM at AR protein [1] (setting [4]) amounted to 18%; at AR protein [2], 41%. For the same molecule, the pIC50 in the experiment on LNCaP FGC cells (setting [5]) is 4.18; with VCaP cells (setting [6]) it was 7.13.

On to `N#Cc1ccc(O[C@H]2CC[C@H](NC(=O)c3ccc(N4CC(N5CC6(CCc7cc8c(cc7O6)C(=O)N(C6CCC(=O)NC6=O)C8=O)C5)C4)nn3)CC2)cc1Cl` (stereo partly drawn) [Compound 5], for which the inhibition at 0.01 µM was found to be 51% at AR protein [1] (LNCaP, 8 h) and 41% on AR protein [2]. In addition, the inhibition at 0.1 µM on AR protein [1] (LNCaP, 8 h) came to 35%; on AR protein [2], 51%. Moreover, the pIC50 is 6.15 in the experiment on LNCaP FGC cells (read-out: IC50 for inhibiting the proliferation of LNCaP cells, LNCaP FGC cells, 96 hours, WST-8 absorbance at 450 nm) and 5.35 with VCaP cells (VCaP, 168 h).

As to `N#Cc1ccc(O[C@H]2CC[C@H](NC(=O)c3ccc(N4CCC(CN5CCC6(CC5)COc5c6ccc6c5CN(C5CCC(=O)NC5=O)C6=O)(C5CC5)CC4)nn3)CC2)cc1Cl` (stereo partly drawn) [Compound 238], the inhibition at 0.01 µM at AR protein [1] (setting [3]) was found to be 31%; on AR protein [2] it was 54%. Also, the inhibition at 0.1 µM on AR protein [1] (setting [4]) was 61%; on AR protein [2], 79%. The pIC50 is 7.68 with LNCaP FGC cells (setting [5]) and 8.80 in the experiment with VCaP cells (setting [6]).

Consider `COc1cc(O[C@H]2C(C)(C)[C@H](NC(=O)c3ccc(N4CCC(CN5CCC6(CC5)COc5c6ccc6c5C(=O)N(C5CCC(=O)NC5=O)C6=O)CC4)cc3)C2(C)C)ccc1C#N` (stereo partly drawn) [Compound 234], for which the inhibition at 0.01 µM is 58% at AR protein [1] (setting [3]) and 35% at AR protein [2]. In addition, the inhibition at 0.1 µM on AR protein [1] (setting [4]) was determined as 81%; on AR protein [2], 72%. The pIC50 with LNCaP FGC cells (setting [5]) is 6.57; with VCaP cells (setting [6]), 7.44.

As to `CC1(CN2CCC3(CCc4cc5c(cc4O3)C(=O)N(C3CCC(=O)NC3=O)C5=O)CC2)CCN(c2ccc(C(=O)N[C@H]3CC[C@H](Oc4ccc(C#N)c(Cl)c4)CC3)nn2)CC1` (stereo partly drawn) [Compound 17], the inhibition at 0.01 µM on AR protein [1] (setting [3]) was 35%; at AR protein [2], 39%. Moreover, the inhibition at 0.1 µM at AR protein [1] (setting [4]) turned out to be 65%; at AR protein [2] it was 80%. In addition, the figures for the pIC50 with LNCaP FGC cells (setting [5]) and in the experiment on VCaP cells (setting [6]) were 6.10 and 6.24, respectively.

Consider `COc1cc(O[C@H]2CC[C@H](NC(=O)c3ccc(N4CCC(O)(CN5CCC6(CC5)COc5c6ccc6c5C(=O)N(C5CCC(=O)NC5=O)C6=O)CC4)nn3)CC2)ccc1C#N` (stereo partly drawn) [Compound 215], for which the inhibition at 0.01 µM turned out to be 86% on AR protein [1] (setting [3]) and 63% at AR protein [2]. In addition, the inhibition at 0.1 µM on AR protein [1] (setting [4]) stood at 91%; on AR protein [2] it was 82%. The figures for the pIC50 with LNCaP FGC cells (setting [5]) and in the experiment with VCaP cells (setting [6]) were 6.66 and 6.30, respectively.

As to `COc1cc(O[C@H]2C(C)(C)[C@H](NC(=O)c3ccc(N4CCC(C)(CN5CCC6(CCc7cc8c(cc7O6)CN(C6CCC(=O)NC6=O)C8=O)CC5)CC4)cc3)C2(C)C)ccc1C#N` (stereo partly drawn) [Compound 281], the inhibition at 0.01 µM on AR protein [1] (setting [3]) was 20%; on AR protein [2], -11%. In addition, the inhibition at 0.1 µM came to 56% on AR protein [1] (setting [4]) and 60% at AR protein [2]. Moreover, the pIC50 is 5.67 with LNCaP FGC cells (setting [5]) and 8.40 in the experiment on VCaP cells (setting [6]).

For the origin of these results see patent US20260234157A1, “COMPOUND AND METHOD FOR TARGETED DEGRADATION OF ANDROGEN RECEPTOR” (Gan & Lee Pharmaceuticals Co., Ltd., priority 2023, published 2026).
